The values that follow come from ChEMBL document CHEMBL5696442, “Discovery of type II inhibitors of TGFβ-activated kinase 1 (TAK1) and mitogen-activated protein kinase kinase kinase kinase 2 (MAP4K2)” (J Med Chem, 2015).

The source made the active and inactive calls. No cut-off for these calls is given here.

Test [1] addresses T1, Dual specificity mitogen-activated protein kinase kinase 6 (Homo sapiens) (UniProt P52564).
T1 sequence (whole entry): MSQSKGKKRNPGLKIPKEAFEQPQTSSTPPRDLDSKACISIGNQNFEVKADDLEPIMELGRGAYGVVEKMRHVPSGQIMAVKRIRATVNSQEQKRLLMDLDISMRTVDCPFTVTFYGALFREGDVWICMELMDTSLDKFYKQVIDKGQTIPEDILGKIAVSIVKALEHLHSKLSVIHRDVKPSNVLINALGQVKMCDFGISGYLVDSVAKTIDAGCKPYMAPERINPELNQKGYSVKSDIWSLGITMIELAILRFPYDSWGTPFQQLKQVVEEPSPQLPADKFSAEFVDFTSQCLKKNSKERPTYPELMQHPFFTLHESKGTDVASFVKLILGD
The experiment in a line: Inhibition of MAP2K6 Lys1 labeling site in human A-375 cells at 5 uM by KiNativ Profiling analysis relative to control. In kind it is cell-based.

Test [2] has as its target T2, Dual specificity mitogen-activated protein kinase kinase 4 (Homo sapiens) (UniProt P45985).
T2 sequence (whole entry): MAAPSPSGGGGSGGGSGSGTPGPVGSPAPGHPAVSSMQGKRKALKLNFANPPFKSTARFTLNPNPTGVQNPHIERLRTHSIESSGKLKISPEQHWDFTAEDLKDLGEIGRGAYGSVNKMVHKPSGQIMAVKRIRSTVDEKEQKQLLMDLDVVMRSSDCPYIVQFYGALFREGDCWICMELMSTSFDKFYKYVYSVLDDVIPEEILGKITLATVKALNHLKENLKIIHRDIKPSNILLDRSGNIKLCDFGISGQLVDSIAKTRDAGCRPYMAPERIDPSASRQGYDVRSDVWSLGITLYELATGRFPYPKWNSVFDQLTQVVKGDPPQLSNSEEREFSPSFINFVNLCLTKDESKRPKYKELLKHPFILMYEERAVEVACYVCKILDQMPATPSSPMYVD
The experiment in a line: Inhibition of MEK4 (unknown origin) at 1 uM by Ambit Kinomescan binding assay relative to control; values are per cent of control.

For test [3], the target named is Insulin-like growth factor 1 receptor (Homo sapiens) (UniProt P08069). In words: Inhibition of IGF1R (unknown origin) at 1 uM by Ambit Kinomescan binding assay relative to control; values are per cent of control.
Test [4] has as its target BMP-2-inducible protein kinase (Homo sapiens) (UniProt Q9NSY1). In words: Inhibition of BIKE (unknown origin) at 10 uM by Ambit Kinomescan binding assay.
Test [5] addresses Death-associated protein kinase 1 (Homo sapiens) (UniProt P53355). The experiment in a line: Inhibition of DAPK1 (unknown origin) at 10 uM by Ambit Kinomescan binding assay.
The target in test [6] is Serine/threonine-protein kinase ULK2 (Homo sapiens) (UniProt Q8IYT8). In words: Inhibition of ULK2 (unknown origin) at 10 uM by Ambit Kinomescan binding assay.
Test [7] addresses Tyrosine-protein kinase CSK (Homo sapiens, UniProt P41240). In words: Inhibition of CSK ACT labeling site harbouring VSDFGLTKEASSTQDTGKLPVKWTAPEALR in human A-375 cells at 5 uM by KiNativ Profiling analysis relative to control. In kind it is cell-based.
Test [8] has as its target T3, Mitogen-activated protein kinase kinase kinase 6 (Homo sapiens) (UniProt O95382).
T3 sequence (whole entry): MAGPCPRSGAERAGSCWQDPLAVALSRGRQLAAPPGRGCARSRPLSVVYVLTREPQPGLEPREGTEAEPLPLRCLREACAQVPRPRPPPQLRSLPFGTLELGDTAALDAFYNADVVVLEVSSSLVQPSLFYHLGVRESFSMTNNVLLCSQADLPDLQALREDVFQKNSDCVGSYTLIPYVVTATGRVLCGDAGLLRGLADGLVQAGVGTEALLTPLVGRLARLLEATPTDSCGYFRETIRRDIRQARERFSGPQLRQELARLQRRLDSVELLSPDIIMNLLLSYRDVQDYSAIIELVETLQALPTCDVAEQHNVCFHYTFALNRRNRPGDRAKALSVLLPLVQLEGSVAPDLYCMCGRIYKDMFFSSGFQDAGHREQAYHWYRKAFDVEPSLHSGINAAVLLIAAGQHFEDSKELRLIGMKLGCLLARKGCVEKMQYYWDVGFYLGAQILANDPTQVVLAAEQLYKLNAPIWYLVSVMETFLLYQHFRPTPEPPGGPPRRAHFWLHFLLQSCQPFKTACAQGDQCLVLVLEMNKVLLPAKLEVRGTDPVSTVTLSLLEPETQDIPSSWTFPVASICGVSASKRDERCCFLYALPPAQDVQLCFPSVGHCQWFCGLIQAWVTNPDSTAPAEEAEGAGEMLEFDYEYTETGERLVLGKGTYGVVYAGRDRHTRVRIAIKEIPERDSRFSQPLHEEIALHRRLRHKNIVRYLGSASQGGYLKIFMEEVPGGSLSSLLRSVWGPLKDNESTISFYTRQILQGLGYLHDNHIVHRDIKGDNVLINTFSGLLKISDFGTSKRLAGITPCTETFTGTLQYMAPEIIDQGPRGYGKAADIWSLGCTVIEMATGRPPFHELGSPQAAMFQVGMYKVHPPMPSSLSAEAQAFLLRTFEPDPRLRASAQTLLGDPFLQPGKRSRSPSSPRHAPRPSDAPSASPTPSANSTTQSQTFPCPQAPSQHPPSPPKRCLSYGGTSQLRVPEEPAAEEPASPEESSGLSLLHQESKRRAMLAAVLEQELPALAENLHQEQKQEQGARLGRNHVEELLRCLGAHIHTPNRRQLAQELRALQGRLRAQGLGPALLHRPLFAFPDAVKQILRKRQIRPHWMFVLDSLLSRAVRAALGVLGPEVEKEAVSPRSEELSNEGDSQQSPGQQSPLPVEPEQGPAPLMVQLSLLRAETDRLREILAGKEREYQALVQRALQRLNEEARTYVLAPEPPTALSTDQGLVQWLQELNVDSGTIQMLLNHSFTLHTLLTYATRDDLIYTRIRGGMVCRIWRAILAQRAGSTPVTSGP
The experiment in a line: Inhibition of MAP3K6 Lys1 labeling site harbouring IAIKEIPERDSR in human A-375 cells at 0.05 uM by KiNativ Profiling analysis relative to control. In kind it is cell-based.

Test [9] in a line: Inhibition of MLK1/4 K2 labeling site in human Huh-7 cells at 10 uM by KiNativ Profiling analysis relative to control. Particulars: condition cancer.

Sequence of Death-associated protein kinase 1 (Homo sapiens) (P53355 whole entry, looked up): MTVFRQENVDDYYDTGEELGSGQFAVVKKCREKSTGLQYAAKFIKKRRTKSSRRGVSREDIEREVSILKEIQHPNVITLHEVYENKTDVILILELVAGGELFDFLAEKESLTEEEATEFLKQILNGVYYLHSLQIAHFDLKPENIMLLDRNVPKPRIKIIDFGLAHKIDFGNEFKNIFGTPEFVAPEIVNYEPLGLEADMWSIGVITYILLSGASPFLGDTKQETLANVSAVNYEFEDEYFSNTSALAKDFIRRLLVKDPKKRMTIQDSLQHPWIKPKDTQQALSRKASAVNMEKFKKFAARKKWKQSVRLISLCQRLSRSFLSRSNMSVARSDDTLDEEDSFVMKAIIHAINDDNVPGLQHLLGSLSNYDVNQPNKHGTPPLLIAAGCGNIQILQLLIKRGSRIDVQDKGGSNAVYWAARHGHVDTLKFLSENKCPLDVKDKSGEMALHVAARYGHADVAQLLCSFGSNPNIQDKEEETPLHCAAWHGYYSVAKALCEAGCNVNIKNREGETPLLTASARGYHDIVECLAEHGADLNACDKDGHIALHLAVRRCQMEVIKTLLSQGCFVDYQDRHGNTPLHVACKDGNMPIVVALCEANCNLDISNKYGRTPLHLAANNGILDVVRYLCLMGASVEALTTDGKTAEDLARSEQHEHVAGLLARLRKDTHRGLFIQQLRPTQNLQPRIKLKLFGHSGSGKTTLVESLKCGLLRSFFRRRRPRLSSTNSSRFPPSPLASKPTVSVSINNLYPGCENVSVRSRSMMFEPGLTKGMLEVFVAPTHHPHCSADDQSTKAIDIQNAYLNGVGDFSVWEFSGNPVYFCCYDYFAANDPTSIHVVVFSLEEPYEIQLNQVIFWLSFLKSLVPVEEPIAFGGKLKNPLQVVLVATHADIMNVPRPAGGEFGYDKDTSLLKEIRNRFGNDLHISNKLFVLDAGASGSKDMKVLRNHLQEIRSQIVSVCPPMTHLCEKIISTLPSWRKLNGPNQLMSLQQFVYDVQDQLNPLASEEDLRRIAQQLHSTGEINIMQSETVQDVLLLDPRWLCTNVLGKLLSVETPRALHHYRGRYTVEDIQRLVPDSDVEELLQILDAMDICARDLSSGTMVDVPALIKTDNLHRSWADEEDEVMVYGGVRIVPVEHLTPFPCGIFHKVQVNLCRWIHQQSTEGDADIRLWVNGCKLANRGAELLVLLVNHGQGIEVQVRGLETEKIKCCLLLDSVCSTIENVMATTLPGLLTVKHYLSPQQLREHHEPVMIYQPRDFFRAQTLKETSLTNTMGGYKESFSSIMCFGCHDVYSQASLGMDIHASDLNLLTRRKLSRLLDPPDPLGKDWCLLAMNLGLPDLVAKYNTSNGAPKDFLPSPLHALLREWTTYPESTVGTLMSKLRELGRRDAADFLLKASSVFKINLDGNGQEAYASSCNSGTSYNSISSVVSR
Sequence of BMP-2-inducible protein kinase (Homo sapiens) (Q9NSY1 whole entry, looked up): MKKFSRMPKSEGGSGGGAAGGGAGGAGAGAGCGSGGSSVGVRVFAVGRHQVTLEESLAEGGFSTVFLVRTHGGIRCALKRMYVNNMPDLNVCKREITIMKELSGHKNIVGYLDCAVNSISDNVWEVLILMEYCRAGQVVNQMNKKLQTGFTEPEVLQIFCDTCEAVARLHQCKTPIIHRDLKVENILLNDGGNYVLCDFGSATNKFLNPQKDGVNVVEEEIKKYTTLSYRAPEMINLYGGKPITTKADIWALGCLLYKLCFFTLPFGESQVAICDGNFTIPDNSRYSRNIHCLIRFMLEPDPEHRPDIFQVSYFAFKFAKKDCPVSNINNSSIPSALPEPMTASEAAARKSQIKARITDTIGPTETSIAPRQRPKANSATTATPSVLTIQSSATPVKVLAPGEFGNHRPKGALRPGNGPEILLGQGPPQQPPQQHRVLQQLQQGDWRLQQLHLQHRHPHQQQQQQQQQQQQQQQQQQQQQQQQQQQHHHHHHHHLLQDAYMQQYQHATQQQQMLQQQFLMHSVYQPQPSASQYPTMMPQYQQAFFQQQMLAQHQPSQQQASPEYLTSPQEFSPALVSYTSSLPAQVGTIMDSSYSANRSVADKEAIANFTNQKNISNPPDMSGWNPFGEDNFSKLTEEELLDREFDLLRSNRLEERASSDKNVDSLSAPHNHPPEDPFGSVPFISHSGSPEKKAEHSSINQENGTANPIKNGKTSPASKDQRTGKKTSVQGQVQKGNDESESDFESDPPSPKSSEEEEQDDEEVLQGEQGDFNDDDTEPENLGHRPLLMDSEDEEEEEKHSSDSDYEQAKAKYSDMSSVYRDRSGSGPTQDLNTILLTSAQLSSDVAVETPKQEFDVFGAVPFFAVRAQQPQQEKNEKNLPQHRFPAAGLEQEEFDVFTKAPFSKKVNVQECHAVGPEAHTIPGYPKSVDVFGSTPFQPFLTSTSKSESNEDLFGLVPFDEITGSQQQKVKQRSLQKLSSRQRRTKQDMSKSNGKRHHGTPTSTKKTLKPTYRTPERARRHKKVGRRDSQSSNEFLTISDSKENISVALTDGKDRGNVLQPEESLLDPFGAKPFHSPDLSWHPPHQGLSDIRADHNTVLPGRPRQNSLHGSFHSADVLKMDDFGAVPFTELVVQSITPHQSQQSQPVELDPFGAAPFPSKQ
Sequence of Tyrosine-protein kinase CSK (P41240 2-450 limits assumed): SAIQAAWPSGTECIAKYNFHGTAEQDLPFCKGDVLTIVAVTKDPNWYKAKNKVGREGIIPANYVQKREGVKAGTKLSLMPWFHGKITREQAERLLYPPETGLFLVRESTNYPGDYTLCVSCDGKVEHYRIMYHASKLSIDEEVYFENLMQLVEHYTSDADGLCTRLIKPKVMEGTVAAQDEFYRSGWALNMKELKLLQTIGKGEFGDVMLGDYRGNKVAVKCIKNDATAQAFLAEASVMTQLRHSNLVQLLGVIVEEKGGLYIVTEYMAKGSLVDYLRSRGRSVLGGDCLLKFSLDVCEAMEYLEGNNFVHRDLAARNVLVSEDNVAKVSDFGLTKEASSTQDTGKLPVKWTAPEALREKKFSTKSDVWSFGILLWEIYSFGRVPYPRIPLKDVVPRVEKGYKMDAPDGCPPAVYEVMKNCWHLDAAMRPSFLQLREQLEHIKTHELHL
Sequence of Insulin-like growth factor 1 receptor (Homo sapiens) (P08069 31-736 limits assumed): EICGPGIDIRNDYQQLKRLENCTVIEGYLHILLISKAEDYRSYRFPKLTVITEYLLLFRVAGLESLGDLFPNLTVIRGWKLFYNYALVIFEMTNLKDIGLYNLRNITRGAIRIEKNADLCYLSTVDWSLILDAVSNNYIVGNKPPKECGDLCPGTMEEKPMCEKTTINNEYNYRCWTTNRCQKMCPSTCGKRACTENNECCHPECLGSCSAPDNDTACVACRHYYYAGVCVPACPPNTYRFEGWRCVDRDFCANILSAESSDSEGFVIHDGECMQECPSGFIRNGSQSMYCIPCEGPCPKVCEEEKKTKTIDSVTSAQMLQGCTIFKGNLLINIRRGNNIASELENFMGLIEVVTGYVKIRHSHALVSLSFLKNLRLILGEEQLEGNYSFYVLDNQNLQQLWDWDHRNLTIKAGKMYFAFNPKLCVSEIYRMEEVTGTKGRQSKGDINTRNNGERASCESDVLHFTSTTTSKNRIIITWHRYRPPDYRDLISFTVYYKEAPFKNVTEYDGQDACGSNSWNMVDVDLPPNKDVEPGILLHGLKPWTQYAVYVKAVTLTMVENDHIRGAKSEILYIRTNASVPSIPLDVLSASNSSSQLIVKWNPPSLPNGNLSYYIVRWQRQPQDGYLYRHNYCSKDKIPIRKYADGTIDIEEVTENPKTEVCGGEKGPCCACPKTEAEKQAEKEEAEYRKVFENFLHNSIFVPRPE
Sequence of Insulin-like growth factor 1 receptor (Homo sapiens) (P08069 741-1367 limits assumed): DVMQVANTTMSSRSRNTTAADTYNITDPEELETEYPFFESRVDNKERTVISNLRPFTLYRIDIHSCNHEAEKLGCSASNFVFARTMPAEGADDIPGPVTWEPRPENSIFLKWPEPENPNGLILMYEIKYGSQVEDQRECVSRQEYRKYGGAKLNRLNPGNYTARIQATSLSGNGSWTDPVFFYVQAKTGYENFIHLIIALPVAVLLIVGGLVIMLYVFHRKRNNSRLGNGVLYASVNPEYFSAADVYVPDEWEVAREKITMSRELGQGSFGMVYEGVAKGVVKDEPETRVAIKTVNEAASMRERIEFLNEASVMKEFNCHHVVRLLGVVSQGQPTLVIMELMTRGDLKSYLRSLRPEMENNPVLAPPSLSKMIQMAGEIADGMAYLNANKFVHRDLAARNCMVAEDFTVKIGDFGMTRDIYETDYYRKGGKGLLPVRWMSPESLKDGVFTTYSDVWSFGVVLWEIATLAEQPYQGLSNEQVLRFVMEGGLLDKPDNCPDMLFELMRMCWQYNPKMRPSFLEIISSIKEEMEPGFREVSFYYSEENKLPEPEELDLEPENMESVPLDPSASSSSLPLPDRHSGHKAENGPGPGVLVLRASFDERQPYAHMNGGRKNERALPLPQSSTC

The term inhibition denotes the change of the read-out against control, counted positive when it falls. With `CCN1CCN(Cc2ccc(NC(=O)c3ccc(C)c(/C=C/c4cnc5[nH]ccc5c4OC)c3)cc2C(F)(F)F)CC1`, the inhibition in test [1] is -0.7%. Besides, the residual activity in test [2] and in test [3] was 100% in each case.
Regarding `CCN1CCN(Cc2ccc(NC(=O)c3ccc(C)c(Oc4ccnc5[nH]ccc45)c3)cc2C(F)(F)F)CC1`, the inhibition result in test [4], in test [5] and in test [6] was “inactive” in each case. In addition, the inhibition in test [7] was 57.7%; in test [8] it was -3.3%. Moreover, in test [9], the inhibition at 10 µM turned out to be 2.9%.
